According to patent US11793824B2, “Administration of nicotinamide mononucleotide in the treatment of disease” (Washington University, priority 2013, dated 2023):
Entries after “also recorded” stand apart in the source; their conditions may differ. Blank lines part the entries; values can stand above or below the compound they belong to.

Tests used:
[1] = Oxygen consumption, energy expenditure, respiratory quotient (Oxymax Lab Animal Monitoring System); type: in vivo, mouse; conditions: 100 mg/kg and 300 mg/kg groups, 12 month time point
Protocol: (§1) A 12 month-long NMN administration study using wild-type mice under a regular chow-fed condition was conducted. NMN was administered through drinking water, and two doses of NMN, 100 and 300 mg/kg body weight/day, were tested. […] To assess beneficial and possible adverse effects of NMN, a variety of physiological parameters were periodically monitored, including body weight, body temperature, food and water intake, fed and fasted blood glucose levels, fed and fasted plasma lipid panels, and glucose and insulin tolerance, in NMN-administered and control mice. Blood chemistry, blood cell counts, urine strip test, and other physiological tests including physical activity test were also checked.
In this long-term NMN administration study (See Methods; Administration of NMN through Drinking Water and Determination of NMN Stability and Toxicity), the inventors measured oxygen consumption, energy expenditure, and respiratory quotient for control, mice administered 100 mg/kg NMN per day and mice administered 300 mg/kg NMN per day at the 12 month time point by using the Oxymax Lab Animal Monitoring System (Columbus Instruments, Columbus, OH).

661W cone PR cell line = assay: 661W cone PR cell line: cell death and intracellular NAD under FK866 with or without NMN; type: cell-based, mouse
Excerpt: The present inventors assessed the physiological importance of NAMPT-mediated NAD biosynthesis in the retina by generating rod cell- and cone cell-specific NAMPT knockout mice. […] Both a and b wave ERG responses were completely depressed as characterized by a total lack of response to all stimuli. […] NMN administration is an effective intervention to treat/prevent retinal degeneration.
The inventors used a 661W cone PR cell line and treated the cells with the specific pharmacological NAMPT inhibitor FK866 (200 nM). […] Cell death progresses dramatically over the next 20 hours.

[2] = Age-associated body weight increase, 12 month-long NMN administration; type: in vivo, mouse; conditions: 12 months
Protocol: as §1
In these experiments, NMN was administered to mice at a dosage rate of 100 mg/kg per day or 300 mg/kg per day. […] The results were analyzed with two-way RANOVA and one-way RANOVA with the unweighted linear term. All values are presented as mean±SEM (n=15, 14, and 14 for control, 100, and 300 mg/kg NMN-administered groups).

[3] = Contextual and cued fear conditioning tests in HFD-fed mice; type: in vivo, mouse
Protocol: Two groups of wild-type C57BL/6 mice at […] of age were fed a high fat diet (HFD) containing 42% of the total calories from fat (TD88137; Harlan Taklad). NMN at a dose of 300 mg/kg/day began to be administered through drinking water to one of the HFD-fed groups after 4 months of HFD feeding. The control group was fed a regular chow. After 8 months of HFD feeding with or without 4 months of NMN treatment, the contextual fear conditioning test, a sensitive test to examine the memory function that involves the hippocampus, was conducted for mice in these three groups.
FIG. 10 illustrates freezing responses of regular chow-fed control, HFD-fed, and HFD-fed, NMN-treated mice in contextual and cued fear conditioning tests on Day 1, Day 2 and Day3. NMN was administered at the dose of 300 mg/kg/day for 4 months. On Day 1 of the study, mice were given an auditory cue and then a mild electric foot shock, and a time of freezing was analyzed individually. On Day 2, the trained mice were placed into a training chamber with no tone cues, and their freezing responses were evaluated. […] The results were analyzed by one-way ANOVA with unweighted quadratic term. All values are presented as mean±SEM (n=17, 15, and 12 for regular chow-fed control, HFD-fed, and HFD-fed, NMN-treated mice, respectively). **P<0.01; *P<0.05.

661W cone cells = assay: 661W cone cells: oxygen consumption rate measurement assay; type: cell-based, mouse
Protocol: There was an abundance of degenerative vacuoles with ingested organelles including mitochondria in rod-CKO mice with no such structures identified in littermate wild type controls. At 3 weeks of age, subtle changes in inner segments could be identified in rod-CKO mice although they were not as dramatic as those seen by 4 weeks (FIG. 35). […] The inventors treated 661W cone cells with NAMPT inhibitor FK866 (200 nM). In the oxygen consumption rate measurement assay, multiple aspects of mitochondrial function were analyzed.

[4] = Bone mineral density by dual-energy X-ray absorptiometry (DXA); type: in vivo, mouse; conditions: 12-month time point, 17-18 month old mice
Protocol: as §1
The inventors measured the bone mineral density (BMD) of control and NMN-treated mice at the 12-month time point of a 12 month long NMN administration experiment by dual-energy X-ray absorptiometry (DXA). At this time point, mice were 17-18 month old.

Nampt = molecular target: T1, Nampt (Mus musculus, UniProt Q99KQ4); assay: NAD+ levels in neurospheres treated with FK866 with or without NMN; type: cell-based
T1 construct: endogenous in cells; host or cells: primary neurospheres (NSPCs) from hippocampi of postnatal mice
T1 sequence (Q99KQ4 whole entry): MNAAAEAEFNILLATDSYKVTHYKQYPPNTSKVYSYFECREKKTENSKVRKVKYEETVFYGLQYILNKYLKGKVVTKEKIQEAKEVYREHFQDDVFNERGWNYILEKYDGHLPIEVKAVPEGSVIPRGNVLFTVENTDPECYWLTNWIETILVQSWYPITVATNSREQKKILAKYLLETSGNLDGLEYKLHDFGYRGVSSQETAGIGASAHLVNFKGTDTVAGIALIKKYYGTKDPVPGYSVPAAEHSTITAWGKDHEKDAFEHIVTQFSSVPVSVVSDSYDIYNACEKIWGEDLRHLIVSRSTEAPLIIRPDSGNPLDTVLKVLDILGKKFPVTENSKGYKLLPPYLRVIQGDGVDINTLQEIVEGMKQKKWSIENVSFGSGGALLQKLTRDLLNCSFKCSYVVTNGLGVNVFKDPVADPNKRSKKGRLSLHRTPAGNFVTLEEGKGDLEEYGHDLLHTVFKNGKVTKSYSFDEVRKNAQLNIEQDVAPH
Protocol: NAD+ levels were determined using an HPLC system (Shimadzu) with a Supelco LC-18-T column (15 cm×4.6 cm; Sigma), as described previously (Yoshino et al, 2011).
FK866 (Hasmann & Schemainda, 2003) (Sigma F8557), EX527 (Peck et al, 2010) (Cayman Chemical 10009798), and AGK2 (Outeiro et al, 2007) (Sigma A8231) were dissolved in DMSO and used to inhibit Nampt, Sirt1, and Sirt2 respectively.
Neurosphere cultures and culture media were prepared as described by Dasgupta & Gutmann, 2005 and Lu & Ramanan, 2012 with the following minor modifications. Briefly, postnatal hippocampi were dissected in HibernateA (Invitrogen, A12475-01) and trypsinized at 37° C. for 7 m. Cells were mechanically dissociated by pipetting and pelleted by centrifugation (1700 rpm, 7 min). Dissociation medium (0.1% sodium bicarbonate, 15 mM HEPES, 0.5% glucose in HBSS) was used to wash the cells before they were resuspended in growth medium. Growth medium consisted of DMEM:F12 (1:1, Invitrogen 11966-025 and 21700-075, respectively), B27 (Invitrogen, 17504-044), N2 (Invitrogen, 17502-048), Pen/Strep (Invitrogen), epidermal growth factor (EGF, 20 ng/ml, Sigma, E4127), fibroblast growth factor (FGF, 10 ng/mL, R&D Systems, 233-fb), and heparin (Sigma). Cultures were maintained at 37° C. with 5% CO2, and passaged twice before use in experiments. […]

[5] = Fundus biomicroscopy of aged mice; type: in vivo, mouse; conditions: 18 months of age
Protocol: as §1
In the long-term NMN administration study (See Methods; Administration of NMN through Drinking Water and Determination of NMN Stability and Toxicity), retinal function was evaluated by fundus biomicroscopy and electroretinography (ERG). FIG. 11 illustrates fundus biomicroscopy images from control and NMN-administered mice. For each group, five mice were examined, and two representative images are shown.

Structure (SMILES): NC(=O)c1ccc[n+]([C@@H]2O[C@H](COP(=O)([O-])O)[C@@H](O)[C@H]2O)c1 [NMN, nicotinamide mononucleotide]
oxygen consumption [1]: significantly increased
respiratory quotient [1]: significantly decreased
energy expenditure ([1]; through 24 hours): significant increases
NAD levels under FK866 (661W cone PR cell line; NMN 100 μM with FK866): restore NAD to normal levels
rescue from FK866-mediated cell death (661W cone PR cell line; NMN 100 μM with FK866): completely rescue; also recorded: successfully rescued
average percent body weight gain suppression normalized to control mice ([2]; 100 mg/kg group): 12%
average percent body weight reduction normalized to control mice ([2]; 100 mg/kg group): 4%
average percent body weight gain suppression normalized to control mice ([2]; 300 mg/kg group): 30%
average percent body weight reduction normalized to control mice ([2]; 300 mg/kg group): 9%
freezing responses, conditioning session and cued fear conditioning ([3]; Day 1 and Day 3, NMN 300 mg/kg/day for 4 months): did not differ from those of control mice
freezing responses, contextual fear conditioning test ([3]; Day 2, NMN 300 mg/kg/day for 4 months): indistinguishable from those of regular chow-fed control mice
effects of FK866 on mitochondrial function (661W cone cells; NMN treatment with FK866): completely reverse
increase in the BMD ([4]; 100 mg/kg group): 2.8%
increase in the BMD ([4]; 300 mg/kg group): 5.9%
rescue of FK866-induced decrease of NAD+ levels (Nampt; concurrent NMN 100 μM with FK866 10 nM): completely rescued
mice with dramatic reductions in intraretinal whitish deposits ([5]; 100 mg/kg): two
mice with dramatic reductions in intraretinal whitish deposits ([5]; 300 mg/kg): four

NAD+ levels in neurospheres (Nampt; FK866 10 nM, 48 hours): 4 % of controls
Structure (SMILES): O=C(/C=C/c1cccnc1)NCCCCC1CCN(C(=O)c2ccccc2)CC1 [FK866]
intracellular NAD levels (661W cone PR cell line; FK866 200 nM): decrease in intracellular NAD levels
cell death of 661W cells (661W cone PR cell line; FK866 200 nM, after 4 hours of treatment): significant cell death; also recorded: apoptotic cell death
maximal respiration (661W cone cells; FK866 200 nM): significantly reduced
